{
  "source": "patent US3970643A",
  "about": "“5\"-Amino-3',5\"-dideoxybutirosin A and derivatives” (Parke, Davis & Company, priority 1975, dated 1976)",
  "test_in_all_cases": "MIC, microtitration in TSB, in vitro antibacterial screening",
  "type_in_all_cases": "cell-based",
  "key": {"Esch. coli JR-76.2": {"system": "Esch. coli JR-76.2", "conditions": "Escherichia coli, JR76.2", "excerpt": "(§1) They show activity when tested by well-recognized in vitro anti-bacterial screening procedures.\n(§2) ^b Butirosin and Gentamicin resistant"}, "Pseudo. aerug. G-76": {"system": "Pseudo. aerug. G-76", "conditions": "Pseudomonas aeruginosa, Pseudo. aerug. G-76, butirosin and gentamicin resistant", "excerpt": "as §1, §2"}, "Pseudo. aerug. 130": {"system": "Pseudo. aerug. 130", "conditions": "Pseudomonas aeruginosa, Pseudo. aerug. 130, gentamicin resistant", "excerpt": "as §1\n^c Gentamicin resistant"}, "Klebs. pneumoniae MGH-1": {"system": "Klebs. pneumoniae MGH-1", "conditions": "Klebsiella pneumoniae, MGH1", "excerpt": "as §1"}, "Pseudo. aerug. UI-18": {"system": "Pseudo. aerug. UI-18", "conditions": "Pseudomonas aeruginosa", "excerpt": "as §1"}, "Serr. marcescens IMM-5": {"system": "Serr. marcescens IMM-5", "conditions": "Serratia marcescens, IMM5", "excerpt": "as §1"}, "Entero. cloacae IMM-50": {"system": "Entero. cloacae IMM-50", "conditions": "Enterobacter cloacae, IMM50", "excerpt": "as §1"}, "Pseudo. aerug. No. 28": {"system": "Pseudo. aerug. No. 28", "conditions": "Pseudomonas aeruginosa", "excerpt": "as §1"}, "Pseudo. aerug. LA-3399": {"system": "Pseudo. aerug. LA-3399", "conditions": "Pseudomonas aeruginosa", "excerpt": "as §1"}, "Pseudo. aerug. 58.38": {"system": "Pseudo. aerug. 58.38", "conditions": "Pseudomonas aeruginosa", "excerpt": "as §1"}, "Pseudo. aerug. VAD12-7-7": {"system": "Pseudo. aerug. VAD12-7-7", "conditions": "Pseudomonas aeruginosa", "excerpt": "as §1"}, "Pseudo. aerug. 733": {"system": "Pseudo. aerug. 733", "conditions": "Pseudomonas aeruginosa", "excerpt": "as §1"}, "Pseudo. aerug. Aquilar": {"system": "Pseudo. aerug. Aquilar", "conditions": "Pseudomonas aeruginosa, butirosin resistant", "excerpt": "as §1"}, "Staph auretis S18713": {"system": "Staph auretis S18713", "conditions": "Staph auretis S18713, butirosin resistant", "excerpt": "as §1"}, "Pseudo. aerug. 74C-1": {"system": "Pseudo. aerug. 74C-1", "conditions": "Pseudomonas aeruginosa", "excerpt": "as §1"}},
  "data": [
    {"compound": "NCC[C@H](O)C(=O)N[C@@H]1C[C@H](N)[C@@H](O[C@H]2O[C@H](CN)[C@@H](O)C[C@H]2N)[C@H](O[C@@H]2O[C@H](CN)[C@H](O)[C@H]2O)[C@H]1O", "note": "[I carbonate, 5\"-amino-3',5\"-dideoxybutirosin A]", "values": [
      {"measurement": "MIC", "setting": "Esch. coli JR-76.2", "value": 25, "unit": "mg/L"},
      {"measurement": "MIC", "setting": "Pseudo. aerug. G-76", "value": 12.5, "unit": "mg/L"},
      {"measurement": "MIC", "setting": "Pseudo. aerug. 130", "value": 6.3, "unit": "mg/L"},
      {"measurement": "MIC", "setting": "Klebs. pneumoniae MGH-1", "value": 6.3, "unit": "mg/L"},
      {"measurement": "MIC", "setting": "Pseudo. aerug. UI-18", "value": 3.1, "unit": "mg/L"},
      {"measurement": "MIC", "setting": "Serr. marcescens IMM-5", "value": 25, "unit": "mg/L"},
      {"measurement": "MIC", "setting": "Entero. cloacae IMM-50", "value": 6.3, "unit": "mg/L"},
      {"measurement": "MIC", "setting": "Pseudo. aerug. No. 28", "value": 1.6, "unit": "mg/L"},
      {"measurement": "MIC", "setting": "Pseudo. aerug. LA-3399", "value": 12.5, "unit": "mg/L"},
      {"measurement": "MIC", "setting": "Pseudo. aerug. 58.38", "value": 3.1, "unit": "mg/L"},
      {"measurement": "MIC", "setting": "Pseudo. aerug. VAD12-7-7", "value": 3.1, "unit": "mg/L"},
      {"measurement": "MIC", "setting": "Pseudo. aerug. 733", "value": 3.1, "unit": "mg/L"},
      {"measurement": "MIC", "setting": "Pseudo. aerug. Aquilar", "value": 12.5, "unit": "mg/L"},
      {"measurement": "MIC", "setting": "Staph auretis S18713", "value": 3.1, "unit": "mg/L"},
      {"measurement": "MIC", "setting": "Pseudo. aerug. 74C-1", "value": 3.1, "unit": "mg/L"}
    ]}
  ]
}
